Where two headings read alike, the source gives them in different places.
Tests used:
MCF-7 [1] = tested on: MCF-7; design: method as in earlier work; conditions: DTP database of the NCI; cited from earlier work
CCRF-CEM [2] = tested on: CCRF-CEM; design: method as in earlier work; conditions: DTP database of the NCI; cited from earlier work
HT-29 [3] = tested on: HT-29; design: method as in earlier work; conditions: DTP database of the NCI; cited from earlier work
HTB-54 [4] = tested on: HTB-54; design: method as in earlier work; conditions: DTP database of the NCI, cited from earlier work
PC-3 [5] = tested on: PC-3; design: method as in earlier work; conditions: DTP database of the NCI; cited from earlier work
HTB-54 [6] = assay: cells; assay type: cell-based; conditions: Homo sapiens, HTB-54, 48 h
Experimental: (§1) Cell lines were provided by the European Collection of Cell Cultures (ECACC) or by the American Type Culture Collection (ATCC). Seven cell lines were used: MCF-7 (breast adenocarnicoma), 184B5 (nonmalignant, mammary gland derived), CCRF-CEM (lymphoblastic leukemia), HT-29 (colon carcinoma), HTB-54 (lung carcinoma), BEAS-2B (nonmalignant, derived from the bronchial epithelium) and PC-3 (prostate carcinoma). MCF-7, CCRF-CEM, HT-29, HTB-54, BEAS-2B and PC-3 cell lines were grown in RPMI medium (Gibco) supplemented with 10% fetal bovine serum (FBS; Gibco), 100 units/mL penicillin and […] streptomycin (Gibco). 184B5 cells were grown in DMEM/F12 medium supplemented with 5% FBS, 1 × ITS (Lonza), 100 nM hydrocortisone (Aldich), 2 mM sodium pyruvate (Lonza), 20 ng/mL EGF (Sigma-Aldrich), 0.3 nM trans-retinoic acid (Sigma-Aldrich), 100 units/mL penicillin and […] streptomycin. Cells were maintained at 37 °C and 5% CO2.
(§2) The cytotoxic effect of each substance was tested by the MTT method. Each compound was initially dissolved in DMSO at a concentration of 0.01 M, and serial dilutions were prepared with nonsupplemented medium. The cytotoxic effect of each compound was tested at 50 and 10 µM as a first screening. […]
(§3) A total of 1 × 10^4 cells/well in 96-well plates were treated with increasing concentrations of the corresponding compounds for 48 h at 37 °C in a humidified atmosphere containing 5% CO2. Then, cells were incubated with 50 µL of MTT (2 mg/mL stock) for 4 h. The medium was then removed by aspiration, and the formazan crystals were dissolved in […] of DMSO. […] Data were obtained from at least 3 independent experiments performed in quadruplicate. The standard error of the means (SEM) for the cytotoxic parameters was calculated applying the standard deviation formula to the mean values of each parameter for the three independent experiments performed.
(§4) . Cisplatin was used as a standard drug. […]. […] The presence of electron-withdrawing groups (-NO2, -CF3, -Cl) in the phenyl ring favored the cytotoxic activity in the amides, but in the phosphoramidates, the best results were obtained for aliphatic chains methoxy (II.1b, II.2b) and ethoxy (II.1d, II.2d). […].

PC-3 [7] = assay: cells; assay type: cell-based; conditions: Homo sapiens, PC-3, 48 h
Experimental: as §1, §2, §3, §4

[8] = MTT cytotoxicity in nonmalignant mammary gland derived cells; assay type: cell-based; conditions: human; nonmalignant cells, 48 h; read-out: LC50 184B5
Experimental: as §1, §2, §3, §4
(§5) The lack of selectivity toward cancerous cells is one of the major issues during the discovery and development of new anticancer agents. Therefore, we evaluated the cytotoxic activity of our compounds against two cell lines derived from nonmalignant breast tissue (184B5) and no malignant bronchial epithelium (BEAS-2B) (Table 2). […].

184B5 = assay: as above; assay type: cell-based
Experimental: as §1, §2, §3, §4, §5

[9] = MTT cytotoxicity in nonmalignant bronchial epithelium cells; assay type: cell-based; conditions: human; nonmalignant cells, 48 h; read-out: LC50 BEAS-2B
Experimental: as §1, §2, §3, §4, §5

BEAS-2B = assay: as above; assay type: cell-based
Experimental: as §1, §2, §3, §4, §5

MCF-7 [10] = conditions: read-out: GI50 MCF-7; 48 h, average ± SEM
MCF-7 [11] = assay: cells; conditions: Homo sapiens, MCF7, 48 h
CCRF-CEM [12] = assay: cells; conditions: Homo sapiens, 48 h
HT-29 [13] = assay: cells; conditions: Homo sapiens, HT-29, 48 h

N.N.[Cl][Pt][Cl] [Cp, cisplatin]
GI50 (MCF-7 [1]): 3.2 µM
TGI MCF-7 (MCF-7 [1]): >100 µM
GI50 (CCRF-CEM [2]): 1 µM
TGI CCRF-CEM (CCRF-CEM [2]): 79.6 µM
GI50 (HT-29 [3]): 7.9 µM
TGI HT-29 (HT-29 [3]): >100 µM
TGI HTB54 (HTB-54 [4]): 32.7 µM
GI50 (HTB-54 [4]; read-out: GI50 HTB54): 9.6 µM
GI50 (PC-3 [5]): 5 µM
TGI PC-3 (PC-3 [5]): 50.1 µM

COP(=O)(Nc1ccc([Se]C#N)cc1)OC [II.2b]
GI50 (HTB-54 [6]; read-out: GI50 HTB54): 6.2 ± 0.2 µM
CC50 (HTB-54 [6]; read-out: LC50 HTB54): 34.6 ± 0.4 µM
IC (TGI) (HTB-54 [6]; read-out: TGI HTB54): 8.6 ± 0.4 µM
GI50 (PC-3 [7]; read-out: GI50 PC-3): 6.4 ± 0.2 µM
LC50 (PC-3 [7]; read-out: LC50 PC-3): 49 ± 0.7 µM
IC (TGI) (PC-3 [7]; read-out: TGI PC-3): 9.3 ± 0.1 µM
CC50 at 48 h [8]: 8.44 µM
GI50 (184B5; Homo sapiens, 184B5, 48 h, read-out: GI50 184B5): 5.44 µM
IC (TGI) (184B5; Homo sapiens, 184B5, 48 h, read-out: TGI 184B5): 6.94 µM
Selectivity index (SI) = GI50 (184B5)/GI50 (MCF-7) (184B5; breast): 7.56
LC50 (50% lethal concentration) at 48 h [9]: 8.38 µM
GI50 (BEAS-2B; Homo sapiens, BEAS-2B, 48 h, read-out: GI50 BEAS-2B): 5.22 µM
IC (TGI) (BEAS-2B; Homo sapiens, BEAS-2B, 48 h, read-out: TGI BEAS-2B): 6.8 µM
Selectivity index (SI) = GI50 (BEAS-2B)/GI50 (HTB-54) (BEAS-2B; lung): 0.84
GI50 (MCF-7 [10]): 0.6 ± 0.2 µM
activity at 10 µM (MCF-7 [11]; read-out: Cell growth (%) MCF-7): -5.82%
GI50 (MCF-7 [11]; read-out: GI50 MCF-7, 48 h, average ± SEM): < 1 µM
CC50 (MCF-7 [11]; read-out: LC50 MCF-7): 9.1 ± 0.7 µM
IC (TGI) (MCF-7 [11]; read-out: TGI MCF-7): 5 ± 1 µM
activity at 10 µM (CCRF-CEM [12]; read-out: Cell growth (%) CCRF-CEM): -67.4%
GI50 (CCRF-CEM [12]; read-out: GI50 CCRF-CEM): 1.6 ± 0.2 µM
CC50 (CCRF-CEM [12]; read-out: LC50 CCRF-CEM): 4.8 ± 0.3 µM
IC (TGI) (CCRF-CEM [12]; read-out: TGI CCRF-CEM): 3.2 ± 0.2 µM
activity at 10 µM (HT-29 [13]; read-out: Cell growth (%) HT-29): -69.4%
GI50 (HT-29 [13]; read-out: GI50 HT-29): 2 ± 0.3 µM
CC50 (HT-29 [13]; read-out: LC50 HT-29): 5 ± 0.1 µM
IC (TGI) (HT-29 [13]; read-out: TGI HT-29): 3.5 ± 0.1 µM
